Where “and” joins values, the source holds several entries; their conditions need not be identical. Equal entries are not always repeated.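 Results reflect a 48-hour exposure of cells in 96-well plates to compound at five concentrations. Here, GI50 denotes the concentration required for 50% inhibition of growth. TGI denotes the concentration required for complete inhibition of growth.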
Experiments:
Experiment in all cases: inhibition of tumour cell growth, NCI panel, 48 h
HL-60(TB) leukemia = tested on: HL-60(TB) leukemia
786-0 renal = tested on: 786-0 renal
LOX IMVI melanoma = tested on: LOX IMVI melanoma
MDA-MB-435 = tested on: MDA-MB-435
HCT-15 colon = tested on: HCT-15 colon
CCRF-CEM leukemia = tested on: CCRF-CEM leukemia
SF-539 CNS = tested on: SF-539 CNS
NCI-H23 lung = tested on: NCI-H23 lung
SK-OV-3 ovarian = tested on: SK-OV-3 ovarian
NCI-H460 lung = tested on: NCI-H460 lung

COc1cc2c(cc1OCC(=O)Nc1ccc(Cl)cc1C(=O)c1ccccc1Cl)N=CC1CCCN1C2=O (stereo not given)
GI50 (HL-60(TB) leukemia): 16.3 µM | TGI (HL-60(TB) leukemia): 56.2 µM | GI50 (786-0 renal): 12.4 µM | TGI (786-0 renal): 26 µM | GI50 (LOX IMVI melanoma): 12.1 µM | TGI (LOX IMVI melanoma): 26.2 µM | GI50 (MDA-MB-435): 13 µM | TGI (MDA-MB-435): 26.3 µM | GI50 (HCT-15 colon): 12.6 µM | TGI (HCT-15 colon): 26 µM | GI50 (CCRF-CEM leukemia): 6.52 µM | TGI (CCRF-CEM leukemia): > 100 µM | GI50 (SF-539 CNS): 19.6 µM | TGI (SF-539 CNS): 33.9 µM | GI50 (NCI-H23 lung): 13.6 µM | TGI (NCI-H23 lung): 30.5 µM | GI50 (SK-OV-3 ovarian): 3.08 µM | TGI (SK-OV-3 ovarian): 12 µM | GI50 (NCI-H460 lung): 11.1 µM | TGI (NCI-H460 lung): 27.1 µM

COc1ccc(C(=O)/C=C/c2ccc(OCc3cccc(C(F)(F)F)c3)c(OC)c2)cc1OC
GI50 (HL-60(TB) leukemia): 24.8 µM | TGI (HL-60(TB) leukemia): 70.9 µM | GI50 (786-0 renal): 67.3 µM | TGI (786-0 renal): > 1000 µM | GI50 (LOX IMVI melanoma): 32.8 µM | TGI (LOX IMVI melanoma): > 1000 µM | GI50 (MDA-MB-435): 45.8 µM | TGI (MDA-MB-435): > 1000 µM | GI50 (HCT-15 colon): 42 µM | TGI (HCT-15 colon): > 1000 µM | GI50 (CCRF-CEM leukemia): 38.8 µM | TGI (CCRF-CEM leukemia): > 1000 µM | GI50 (SF-539 CNS): 65.3 µM | TGI (SF-539 CNS): > 1000 µM | GI50 (NCI-H23 lung): 46.7 µM | TGI (NCI-H23 lung): > 1000 µM | GI50 (SK-OV-3 ovarian): 221 µM | TGI (SK-OV-3 ovarian): > 1000 µM | GI50 (NCI-H460 lung): 51.7 µM | TGI (NCI-H460 lung): > 1000 µM

O=C1OC(OC/C(Br)=C(\Br)COC2OC(=O)C(Cl)=C2Cl)C(Cl)=C1Cl (stereo not given)
TGI (HL-60(TB) leukemia): 1.43 µM | TGI (786-0 renal): 6.4 µM | TGI (LOX IMVI melanoma): 8.29 µM | TGI (MDA-MB-435): 21.4 µM | TGI (HCT-15 colon): 10.1 µM | TGI (CCRF-CEM leukemia): 2.34 µM | TGI (SF-539 CNS): 21.9 µM | TGI (NCI-H23 lung): 14 µM | TGI (SK-OV-3 ovarian): 43 µM | TGI (NCI-H460 lung): 33.6 µM

Cc1c(C(=O)Nc2ccc(N3C[C@@H](C)O[C@@H](C)C3)nc2)cccc1-c1ccc(OC(F)(F)F)cc1
GI50 (HL-60(TB) leukemia): 7.25 µM and 22.7 µM | TGI (HL-60(TB) leukemia): > 100 µM | GI50 (786-0 renal): 3.61 µM and 5.77 µM | TGI (786-0 renal): 21 µM and 30 µM | GI50 (LOX IMVI melanoma): 7.11 µM and 7.68 µM | TGI (LOX IMVI melanoma): 31.9 µM and 67.5 µM | GI50 (MDA-MB-435): 7.29 µM and 5.89 µM | TGI (MDA-MB-435): 49.2 µM and 38 µM | GI50 (HCT-15 colon): 12.2 µM and 16.9 µM | TGI (HCT-15 colon): 38.8 µM and 55.8 µM | GI50 (CCRF-CEM leukemia): 9.77 µM and 50 µM | TGI (CCRF-CEM leukemia): > 100 µM | GI50 (SF-539 CNS): 6.74 µM and 10.5 µM | TGI (SF-539 CNS): 22 µM and 27.3 µM | GI50 (NCI-H23 lung): 5.98 µM and 12.4 µM | TGI (NCI-H23 lung): 25.5 µM and 40.4 µM | GI50 (SK-OV-3 ovarian): 11.4 µM and 15.2 µM | TGI (SK-OV-3 ovarian): 30 µM and 34.5 µM | GI50 (NCI-H460 lung): 8.67 µM and 6.79 µM | TGI (NCI-H460 lung): > 68.6 µM and 83.7 µM

CC1=C(CCC(C)CO)O[C@H]2C[C@H]3[C@@H]4CC[C@H]5C[C@@H](O)CC[C@]5(C)[C@H]4CC(=O)[C@]3(C)[C@@H]12 (stereo not given in full)
TGI (HL-60(TB) leukemia): 13.6 µM | TGI (786-0 renal): 52.4 µM | TGI (LOX IMVI melanoma): 33.8 µM | TGI (MDA-MB-435): 54.8 µM | TGI (HCT-15 colon): 57.6 µM | TGI (CCRF-CEM leukemia): 23.8 µM | TGI (SF-539 CNS): 72.7 µM | TGI (NCI-H23 lung): 36.6 µM | TGI (SK-OV-3 ovarian): 43.4 µM | TGI (NCI-H460 lung): 21.8 µM

C=C1C(=O)O[C@@H]2/C=C(/C)[C@@H](OC(C)=O)C[C@@H](O)/C(C)=C\[C@@H](OC(=O)[C@]3(C)O[C@@H]3C)[C@@H]12
TGI (HL-60(TB) leukemia): 7.85 µM | TGI (786-0 renal): 15.8 µM | TGI (LOX IMVI melanoma): 20.4 µM | TGI (MDA-MB-435): 28.8 µM | TGI (HCT-15 colon): 34.1 µM | TGI (CCRF-CEM leukemia): 11.7 µM | TGI (SF-539 CNS): 46.5 µM | TGI (NCI-H23 lung): 35.6 µM | TGI (SK-OV-3 ovarian): > 100 µM | TGI (NCI-H460 lung): 72.9 µM

CCN1CCN(c2ccc(NC(=O)Nc3nc4ccc(-c5ccccc5OC)cc4s3)cc2)CC1
GI50 (HL-60(TB) leukemia): 1.73 µM | TGI (HL-60(TB) leukemia): 3.58 µM | GI50 (786-0 renal): 1.8 µM | TGI (786-0 renal): 3.28 µM | GI50 (LOX IMVI melanoma): 1.7 µM | TGI (LOX IMVI melanoma): 3.17 µM | GI50 (MDA-MB-435): 1.71 µM | TGI (MDA-MB-435): 3.14 µM | GI50 (HCT-15 colon): 1.2 µM | TGI (HCT-15 colon): 2.47 µM | GI50 (CCRF-CEM leukemia): 1.81 µM | TGI (CCRF-CEM leukemia): 4.09 µM | GI50 (SF-539 CNS): 1.6 µM | TGI (SF-539 CNS): 3.03 µM | GI50 (NCI-H23 lung): 1.67 µM | TGI (NCI-H23 lung): 3.65 µM | GI50 (SK-OV-3 ovarian): 1.79 µM | TGI (SK-OV-3 ovarian): 3.55 µM | GI50 (NCI-H460 lung): 1.77 µM | TGI (NCI-H460 lung): 3.27 µM

CN(C(=O)C(C)(C)C)c1ccccc1I(=O)=O
GI50 (HL-60(TB) leukemia): 3.81 µM | TGI (HL-60(TB) leukemia): > 100 µM | GI50 (786-0 renal): > 100 µM | TGI (786-0 renal): > 100 µM | GI50 (LOX IMVI melanoma): > 100 µM | TGI (LOX IMVI melanoma): > 100 µM | GI50 (MDA-MB-435): > 100 µM | TGI (MDA-MB-435): > 100 µM | GI50 (HCT-15 colon): 84.3 µM | TGI (HCT-15 colon): > 100 µM | GI50 (CCRF-CEM leukemia): 8.62 µM | TGI (CCRF-CEM leukemia): 31.6 µM | GI50 (SF-539 CNS): > 100 µM | TGI (SF-539 CNS): > 100 µM | GI50 (NCI-H23 lung): > 100 µM | TGI (NCI-H23 lung): > 100 µM | GI50 (SK-OV-3 ovarian): > 100 µM | TGI (SK-OV-3 ovarian): > 100 µM | GI50 (NCI-H460 lung): > 100 µM | TGI (NCI-H460 lung): > 100 µM

CN1CCN(Cc2ccc(NC(=O)c3cncc(C#Cc4ccc(N)nc4)c3)cc2C(F)(F)F)CC1
GI50 (HL-60(TB) leukemia): 0.945 µM | TGI (HL-60(TB) leukemia): 2.25 µM | GI50 (786-0 renal): 1.76 µM | TGI (786-0 renal): 6.83 µM | GI50 (LOX IMVI melanoma): 0.556 µM | TGI (LOX IMVI melanoma): 1.28 µM | GI50 (MDA-MB-435): 1.09 µM | TGI (MDA-MB-435): 5.68 µM | GI50 (HCT-15 colon): 1.12 µM | TGI (HCT-15 colon): 5.96 µM | GI50 (CCRF-CEM leukemia): 1.46 µM | TGI (CCRF-CEM leukemia): 11.8 µM | GI50 (SF-539 CNS): 0.501 µM | TGI (SF-539 CNS): 1.66 µM | GI50 (NCI-H23 lung): 1.3 µM | TGI (NCI-H23 lung): 6.27 µM | GI50 (SK-OV-3 ovarian): 0.693 µM | TGI (SK-OV-3 ovarian): 4.69 µM | GI50 (NCI-H460 lung): 0.988 µM | TGI (NCI-H460 lung): 5.86 µM

CC1(C)OCC2OC(n3cnc4c(N)nc(Cl)nc43)C(OS(C)(=O)=O)C2O1 (stereo not given)
TGI (HL-60(TB) leukemia): > 100 µM | TGI (786-0 renal): > 100 µM | TGI (LOX IMVI melanoma): > 100 µM | TGI (MDA-MB-435): > 100 µM | TGI (HCT-15 colon): > 100 µM | TGI (CCRF-CEM leukemia): > 100 µM | TGI (SF-539 CNS): > 100 µM | TGI (NCI-H23 lung): > 100 µM | TGI (SK-OV-3 ovarian): > 100 µM | TGI (NCI-H460 lung): > 100 µM

Nc1nc(N)c2c(ccc3c2ccn3Cc2cccc([N+](=O)[O-])c2)n1
GI50 (HL-60(TB) leukemia): 0.00918 µM and 0.0476 µM | TGI (HL-60(TB) leukemia): 2.5 µM | GI50 (786-0 renal): 0.0411 µM | TGI (786-0 renal): 1.5 µM | GI50 (LOX IMVI melanoma): 0.00831 µM | TGI (LOX IMVI melanoma): 1.47 µM | GI50 (MDA-MB-435): 0.0217 µM | TGI (MDA-MB-435): 2.4 µM and 2.59 µM | GI50 (HCT-15 colon): 0.0126 µM | TGI (HCT-15 colon): 1.58 µM and 1.7 µM | GI50 (CCRF-CEM leukemia): 0.0221 µM and 0.0126 µM | TGI (CCRF-CEM leukemia): 2.03 µM and 1.07 µM | GI50 (SF-539 CNS): 0.0454 µM | TGI (SF-539 CNS): 1.64 µM | GI50 (NCI-H23 lung): 0.0566 µM | TGI (NCI-H23 lung): 2.46 µM | GI50 (SK-OV-3 ovarian): 0.0888 µM and 0.54 µM | TGI (SK-OV-3 ovarian): 2.01 µM and 2.11 µM | GI50 (NCI-H460 lung): 0.00501 µM | TGI (NCI-H460 lung): 1.89 µM and 1.35 µM

CCC(=O)OCOc1ccc(/C=C2\CCC(CN(C)C)C2=O)cc1 (stereo not given)
TGI (HL-60(TB) leukemia): 5.51 µM | TGI (786-0 renal): 6.2 µM | TGI (LOX IMVI melanoma): 4.1 µM | TGI (MDA-MB-435): 10.6 µM | TGI (HCT-15 colon): 9.97 µM | TGI (CCRF-CEM leukemia): > 23.1 µM | TGI (SF-539 CNS): 17.3 µM | TGI (NCI-H23 lung): 15.8 µM | TGI (SK-OV-3 ovarian): 29.1 µM | TGI (NCI-H460 lung): 32.7 µM
